Our source for the IC50 and CCK-B/CCK-A values is US5716958A, “Amino acid derivative having anti-CCK activity” (Tobishi Pharmaceutical Co., Ltd., priority 1994, dated 1998).

Each structure is given as a SMILES string. Like-named read-outs stand apart in the source and are kept apart here.

One assay concerns the target T1, CCK-B (Rattus norvegicus, UniProt P30553).
T1 construct: CCK-B receptors originating in the cell membrane of rat brain cells; from tissue; host or cells: rat cerebrum membranes (male rats, Japan Laboratory Animals)
T1 sequence (P30553 1-452): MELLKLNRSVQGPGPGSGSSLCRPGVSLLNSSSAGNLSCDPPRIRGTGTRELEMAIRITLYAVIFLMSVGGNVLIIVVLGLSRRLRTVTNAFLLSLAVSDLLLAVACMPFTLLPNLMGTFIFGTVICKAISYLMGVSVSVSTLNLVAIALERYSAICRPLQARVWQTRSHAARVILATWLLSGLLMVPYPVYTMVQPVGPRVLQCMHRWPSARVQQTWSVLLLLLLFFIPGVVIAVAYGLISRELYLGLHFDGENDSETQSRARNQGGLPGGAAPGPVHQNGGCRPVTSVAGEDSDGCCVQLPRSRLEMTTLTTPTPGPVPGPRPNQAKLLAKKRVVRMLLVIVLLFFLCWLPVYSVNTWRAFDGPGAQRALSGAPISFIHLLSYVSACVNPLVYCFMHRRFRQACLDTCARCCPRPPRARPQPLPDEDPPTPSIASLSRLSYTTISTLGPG
As to the kind of experiment: Central receptor (CCK-B) binding experiment, [^3 H]-CCK-8 binding inhibition. As to conditions: rat cerebrum homogenate, 0.2 nM [^3 H]-CCK-8, 60 minutes at 25° C. On the procedure: (§1) Peripheral Receptor (CCK-A) and Central Receptor (CCK-B) Binding Experiment
(§2) The pancreas and cerebrum of male rats (Japan Laboratory Animals), which were sacrificed by decapitation and having body weights of 250-300 g, were extracted and immersed in cold Hepes buffer. After suspending these tissues using a Potter homogenizer, the suspension was centrifuged for 10 minutes at 48,000×g. The resulting residue was again suspended by addition of cold Hepes buffer and centrifuged for 10 minutes at 48,000×g. The resulting residue was transferred to cold incubation buffer.
(§3) A 1 ml aliquot of the homogenate was incubated for 60 minutes at 25° C. in the presence of 0.2 nM [^3 H]-CCK-8 and the test compound, in the presence of vehicle only (for measurement of 100% binding), or in the presence of 1 μM cold CCK-8 (for measurement of non-specific binding). Next, the reaction solution was promptly suction filtered using a Whatman glass GF/B filter immersed in Hepes buffer followed by washing the filter with cold Hepes buffer. Next, the glass filter was placed in Aquasol-2 followed by assay of radioactivity with a liquid scintillation counter.
(§4) The compound numbers shown in Table 3 indicate the target compounds according to the number of the embodiment.

Assay [1] concerns extracted guinea pig ileum. Kind of assay: Anti-CCK action in extracted guinea pig ileum (inhibition of CCK-8-induced contraction, Magnus tube). The arrangement: species or system guinea pig (Hartley strain, male). Particulars: Cavia porcellus. On the procedure: Anti-cholecystokinin (CCK) Action in Extracted Guinea Pig Ileum After sacrificing a male guinea pig (Hartley strain) by striking and exsanguination, a piece of extracted ileum was suspended from a Magnus tube, while applying tension of 0.5 g, containing 30 ml of Tyrode's solution (NaCl 136.9 mM, KCl 2.68 mM, CaCl2 1.8 mM, MgCl2 1.05 mM, NaH2 PO4 0.42 mM, NaHCO3 11.9 mM and glucose 5.55 mM) and ventilated with mixed O2 gas containing 5% CO2 at 37° C. Changes in contraction were recorded on smoked paper for isotonicity via a bevel. The piece of ileum was allowed to stand undisturbed for 30 minutes and then contracted by addition 1×10^-8 M CCK-8. After washing, this was repeated several times. After the contraction by CCK-8 had stabilized, the test compound was added. Contraction resulting from addition of 1×10^-8 M CCK was then measured 5 minutes later. The contraction caused by CCK-8 and the contraction caused by CCK-8 in the presence of the test compound at varying concentrations were compared, and the resulting IC50 values (concentration of test substance at which contraction caused by CCK-8 is inhibited by 50%) are shown in Table 2. The compound numbers shown in Table 2 indicate the target compounds according to the numbers of the embodiments.

The target in the next assay is T2, CCK-A (Rattus norvegicus, UniProt P30551).
T2 construct: CCK-A receptors prepared from the cell membranes of rat pancreas; from tissue; host or cells: rat pancreas membranes (male rats, Japan Laboratory Animals)
T2 sequence (P30551 1-444): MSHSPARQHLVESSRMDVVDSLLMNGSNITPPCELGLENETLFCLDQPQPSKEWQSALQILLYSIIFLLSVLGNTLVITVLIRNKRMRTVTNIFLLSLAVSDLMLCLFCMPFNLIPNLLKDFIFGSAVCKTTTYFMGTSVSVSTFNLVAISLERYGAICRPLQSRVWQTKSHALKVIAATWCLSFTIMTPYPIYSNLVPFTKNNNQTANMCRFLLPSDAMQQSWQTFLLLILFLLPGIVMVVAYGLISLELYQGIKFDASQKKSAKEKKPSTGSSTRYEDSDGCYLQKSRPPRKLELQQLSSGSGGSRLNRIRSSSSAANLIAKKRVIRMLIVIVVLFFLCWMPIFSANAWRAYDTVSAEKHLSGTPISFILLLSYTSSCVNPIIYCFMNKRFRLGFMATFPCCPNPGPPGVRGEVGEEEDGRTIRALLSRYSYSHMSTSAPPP
As to the kind of experiment: Peripheral receptor (CCK-A) binding experiment, [^3 H]-CCK-8 binding inhibition. As to conditions: for CCK-B/CCK-A: ratio of IC50 values CCK-B/CCK-A (selectivity for CCK-A), 60 min. The protocol: as §1, §2, §3, §4

Where [2] appears, read: contraction by 1×10^-8 M CCK-8, test compound added 5 minutes before, extracted ileum, 37° C, read-out: Active IC50.
Setting [3] is: rat pancreas homogenate, 0.2 nM [^3 H]-CCK-8, 60 minutes at 25° C, read-out: CCK-A IC50.
[4] abbreviates: rat pancreas cell membranes, read-out: activity in binding experiment on CCK-A receptors prepared from the cell membranes of rat pancreas.

With `O=C(N[C@@H](CSc1ncccc1C(=O)O)C(=O)N1CCN(C(c2ccccn2)c2ccccn2)CC1)c1cc2ccccc2[nH]1` [Compound 8-5, (R)-4-bis(2-pyridyl)methyl-1-[3-(3-carboxypyridin-2-yl)thio-2-(indol-2-yl)carbonylamino]propionylpiperazine], the IC50 turned out to be 57000 nM on CCK-B, 350 nM in assay [1] (setting [2]) and 50 nM on CCK-A (setting [3]). Also, on CCK-A, the CCK-B/CCK-A worked out at 1140.

For the molecule `O=C(N[C@@H](CSc1ncccc1C(=O)O)C(=O)N1CCN(C(c2ccc(F)cc2)c2ccc(F)cc2)CC1)c1cc2ccccc2[nH]1` [Compound 10-4, (R)-4-bis(4-fluorophenyl)methyl-1-[3-(3-carboxypyridin-2-yl)thio-2-(indol-2-yl)carbonylamino]propionylpiperazine], the IC50 amounted to 36000 nM at CCK-B, 48 nM in assay [1] (setting [2]), 6 nM at CCK-A (setting [4]) and 6 nM at CCK-A (setting [3]). The CCK-B/CCK-A at CCK-A is reported as 6000.

Consider `O=C(N[C@@H](CSc1ncccc1C(=O)O)C(=O)N1CCN(C(c2ccccc2)c2ccccc2)CC1)c1cc2cc(O)ccc2[nH]1` [Compound 12-2, (R)-1-[3-(3-carboxypyridin-2-yl)thio-2-(5-hydroxyindol-2-yl)carbonylamino]propionyl-4-diphenylmethylpiperazine], for which the IC50 on CCK-B is 42000 nM; in assay [1] (setting [2]), 27 nM; on CCK-A (setting [4]), 5 nM; on CCK-A (setting [3]), 5 nM. The CCK-B/CCK-A at CCK-A is recorded as 8400.

For `CCCCC(CCCC)N1CCN(C(=O)[C@H](CSc2ncccc2C(=O)O)NC(=O)c2cc3ccccc3[nH]2)CC1` [Compound 14-5, (R)-1-[3-(3-carboxypyridin-2-yl)thio-2-(indol-2-yl)carbonylamino]propionyl-4-(1-butylpentyl)piperazine], the IC50 on CCK-B turned out to be 100000 nM; in assay [1] (setting [2]), 260 nM; on CCK-A (setting [3]) it was 170 nM. The CCK-B/CCK-A on CCK-A is 588.

For `CC(C)C(C(C)C)N1CCN(C(=O)[C@H](CSc2ncccc2C(=O)O)NC(=O)c2cc3ccccc3[nH]2)CC1` [Compound 15-4, (R)-1-[3-(3-carboxypyridin-2-yl)thio-2-(indol-2-yl)carbonylamino]propionyl-4-diisopropylmethylpiperazine], the IC50 was 8800 nM at CCK-B, 120 nM in assay [1] (setting [2]) and 30 nM at CCK-A (setting [3]). The CCK-B/CCK-A at CCK-A is reported as 293.

On to `O=C(N[C@@H](CSc1nccnc1C(=O)O)C(=O)N1CCN(C(c2ccccc2)c2ccccc2)CC1)c1cc2ccccc2[nH]1` [Compound 17-3, (R)-1-[3-(3-carboxypyrazin-2-yl)thio-2-(indol-2-yl)carbonylamino)propionyl-4-diphenylmethylpiperazine], for which the IC50 on CCK-B was 13000 nM; in assay [1] (extracted guinea pig ileum, read-out: IC50 with respect to the extracted guinea pig ileum (in vitro)) it was 7.2 nM; in assay [1] (setting [2]) it was 7.2 nM; on CCK-A (setting [3]), 560 nM. At CCK-A, the CCK-B/CCK-A worked out at 23.

Take `O=C(N[C@@H](CSc1ncccc1P(=O)(O)O)C(=O)N1CCN(C(c2ccccc2)c2ccccc2)CC1)c1cc2ccccc2[nH]1` [Compound 22-4, (R)-4-diphenylmethyl-1-[3-(3-phosphonopyridin-2-yl)thio-2-(indol-2-yl)carbonylamino]propionylpiperazine]: the results for the IC50 (on CCK-B; in assay [1] (setting [2]); at CCK-A (setting [3])) were 56000 nM, 36 nM and 20 nM, respectively. Further, the CCK-B/CCK-A on CCK-A stood at 2800.

Take `O=C(N[C@@H](CCn1nncc1C(=O)O)C(=O)N1CCN(C(c2ccccc2)c2ccccc2)CC1)c1cc2ccccc2[nH]1` [Compound 24-3, (S)-1-[4-(5-carboxy-1,2,3-triazol-1-yl)-2-(indol-2-yl)carbonylamino]butyryl-4-diphenylmethylpiperazine]: the results for the IC50 (on CCK-B; in assay [1] (setting [2]); on CCK-A (setting [3])) were 69000 nM, 120 nM and 37 nM, respectively. Besides, the CCK-B/CCK-A at CCK-A amounted to 1865.

As for `O=C(N[C@@H](CCc1ocnc1C(=O)O)C(=O)N1CCN(C(c2ccccc2)c2ccccc2)CC1)c1cc2ccccc2[nH]1` [Compound 26-5, (S)-1-[4-(4-carboxyoxazol-5-yl)-2-(indol-2-yl)carbonylamino]butyryl-4-diphenylmethylpiperazine], the IC50 on CCK-B was 10000 nM; in assay [1] (setting [2]) it was 17 nM; on CCK-A (setting [3]), 16 nM. Moreover, the CCK-B/CCK-A at CCK-A worked out at 625.

As for `O=C(N[C@@H](Cc1ocnc1C(=O)O)C(=O)N1CCN(C(c2ccccc2)c2ccccc2)CC1)c1cc2ccccc2[nH]1` [Compound 27-5, (S)-1-[3-(4-carboxyoxazol-5-yl)-2-(indol-2-yl)carbonylamino]propionyl-4-diphenylmethylpiperazine], the IC50 on CCK-B was 9600 nM; in assay [1] (setting [2]), 190 nM; on CCK-A (setting [3]), 180 nM. At CCK-A, the CCK-B/CCK-A worked out at 53.
